We go through 5 compounds from EP0556789A2, “Substituted biphenyl derivatives, therapeutic agents containing them and process for their preparation” (Dr. Karl Thomae GmbH, priority 1992, dated 1993).

Structures are written as SMILES.

The target in the assay is T1, Angiotensin II-Rezeptor (Rattus norvegicus, UniProt P25095).
T1 construct: Das Gewebe (Rattenlunge) wird in Tris-Puffer; from tissue; host or cells: rat lung (membrane pellet of the homogenate)
T1 sequence (P25095 1-359): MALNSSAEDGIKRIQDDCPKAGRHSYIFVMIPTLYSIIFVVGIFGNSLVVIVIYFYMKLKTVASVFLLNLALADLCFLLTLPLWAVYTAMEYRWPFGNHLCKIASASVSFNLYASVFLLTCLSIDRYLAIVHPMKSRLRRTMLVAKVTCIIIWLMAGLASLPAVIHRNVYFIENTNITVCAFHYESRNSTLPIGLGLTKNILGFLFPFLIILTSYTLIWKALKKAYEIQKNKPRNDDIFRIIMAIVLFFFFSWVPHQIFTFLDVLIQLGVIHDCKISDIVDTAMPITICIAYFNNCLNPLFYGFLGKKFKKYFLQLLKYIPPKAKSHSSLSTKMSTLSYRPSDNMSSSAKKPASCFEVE
The assay can be described thus: Angiotensin II receptor binding ([125I]-angiotensin II displacement, rat lung homogenate). Also noted: species or system Ratte. To be noted: Rattenlunge homogenate, 50 pM [125I]-Angiotensin II, 60 min at 37 °C. The method, then: Methodenbeschreibung Angiotensin II-Rezeptorbindung
Das Gewebe (Rattenlunge) wird in Tris-Puffer (50 mMol Tris, 150 mMol NaCI, 5 mMol EDTA, pH 7.40) homogenisiert und zweimal je 20 Min. bei 20.000 x g zentrifugiert. Das endgültige Pellet wird in Inkubations-Puffer (50 mMol Tris, 5 mMol MgCI2, 0,2 % BSA, pH 7.40) 1:75, bezogen auf das Feuchtgewicht des Gewebes, resuspendiert. Je 0,1 ml Homogenat wird für 60 Min. bei 37 ° C mit 50 pM [125']-Angiotensin II (NEN, Dreieich, FRG) und steigenden Konzentrationen der Testsubstanz in einem Gesamtvolumen von 0,25 ml inkubiert. Die Inkubation wird durch rasche Filtration durch Glasfiber-Filtermatten beendet. Die Filter werden je 4 ml eiskaltem Puffer (25 mMol Tris, 2.5 mMol MgCI2, 0,1 % BSA, pH 7,40) gewaschen. Die gebundene Radioaktivität wird in einem Gamma-Counter ermittelt. Aus der Dosis-Wirkungskurve wird der entsprechende 1C50-Wert ermittelt.
What is called IC50 is the concentration that gives 50% inhibition. The low end stands for greater potency in that assay, the high end for weaker potency in that assay. For `CCCc1nc2c(C)cc(-c3cn(C(C)C)cn3)cc2n1Cc1ccc(-c2ccccc2)c(CCc2nnn[nH]2)c1` [Substanz E, 2-n-Propyl-4-methyl-6-(1-isopropyl-imidazol-4-yl)-1-[3-(2-tetrazol-5-yl-ethyl)-4-phenyl-benzyl]-benzimidazol], the half-inhibitory concentration (IC50) stood at 6.9 nM.

Compound `CCc1nc2c(C)cc(C)nc2n1Cc1ccc(-c2ccccc2)c(Cc2nnn[nH]2)c1` [Substanz D, 2-Ethyl-5,7-dimethyl-3-[3-(tetrazol-5-yl-methyl)-4-phenyl-benzyl]-imidazo[4,5-b]pyridin] gave an IC50 of 73 nM.

For `CCCc1nc2c(C)cc(-c3nc4ccccc4n3C)cc2n1Cc1ccc(-c2ccccc2)c(CCC(=O)O)c1` [Substanz C, 2-n-Propyl-4-methyl-6-(1-methyl-benzimidazol-2-yl)-1-[3-(2-hydroxycarbonyl-ethyl)-4-phenyl-benzyl]-benzimidazol], the half-inhibitory concentration (IC50) turned out to be 18 nM. This IC50 is about 4.1-fold lower than that of the compound before.

For `CCCc1nc2c(C)cccc2n1Cc1ccc(-c2ccccc2)c(Cc2nnn[nH]2)c1` [Substanz A, 2-n-Propyl-4-methyl-1-[3-(tetrazol-5-yl-methyl)-4-phenyl-benzyl]-benzimidazol], the IC50 was 370 nM.

`CCCc1nc2c(C)cccc2n1Cc1ccc(-c2ccccc2)c(CCC(=O)O)c1` [Substanz B, 2-n-Propyl-4-methyl-1-[3-(2-hydroxycarbonyl-ethyl)-4-phenyl-benzyl]-benzimidazol] displayed an IC50 of 270 nM. This IC50 and that of the compound before are within 1.5-fold of each other.
